Measurements published in US20120288442A1, “Nuclear Imaging Method Using Molecular Target Detection Agent for Liver Fibrosis” (ATOMIC ENERGY COUNCIL-INSTITUTE OF NUCLEAR ENERGY RESEARCH, priority 2011, published 2012).

Target: T1, CB1 receptor of liver fibrosis cell (Mus musculus, UniProt P47746)
T1 construct: from tissue; host or cells: liver of living mice (one fibrotic, one normal), in vivo imaging
Assay: fluorescence imaging of a mouse having liver fibrosis and a normal mouse with Tocrifluor
Type: in vivo
Conditions: for a 543 nm light; FIG. 3B and FIG. 3C

T1 sequence (P47746 whole entry): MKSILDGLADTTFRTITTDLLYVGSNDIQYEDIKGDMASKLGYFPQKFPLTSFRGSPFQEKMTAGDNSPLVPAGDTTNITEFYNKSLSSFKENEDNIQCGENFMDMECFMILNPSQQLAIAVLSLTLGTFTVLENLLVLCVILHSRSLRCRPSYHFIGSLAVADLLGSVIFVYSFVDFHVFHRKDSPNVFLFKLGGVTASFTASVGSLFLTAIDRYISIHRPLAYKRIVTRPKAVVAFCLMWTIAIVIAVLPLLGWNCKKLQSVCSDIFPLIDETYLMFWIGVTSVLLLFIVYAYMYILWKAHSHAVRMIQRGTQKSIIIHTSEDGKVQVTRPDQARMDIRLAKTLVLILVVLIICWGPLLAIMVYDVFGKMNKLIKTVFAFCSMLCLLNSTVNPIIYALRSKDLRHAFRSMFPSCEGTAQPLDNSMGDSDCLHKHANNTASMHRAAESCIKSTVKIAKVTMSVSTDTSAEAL

Question: With “N-(Piperidin-1-yl)-5-(4-(4-(3-(5-carboxamidotetramethyl rhodaminyl)propyl))phenyl)-1-(2,4-dichlorophenyl)-4-methyl-1H-pyrazole-3-carboxamide [Tocrifluor]” as the substance, how does the “fluorescence found at wavelength” value read?
Answer: 590 nm
